The text below walks through data of US20120165310A1, “ETHER DERIVATIVES OF BICYCLIC HETEROARYLS” (NOVARTIS AG, priority 2009, published 2012).

The target of this test is T1, IGF-1R (Homo sapiens, UniProt P08069).
T1 construct: expressed in transfected cells; host or cells: Hek293 (Hek293-IGF1R)
The experiment in a line: Cellular IGF-1R assay: capture ELISA (MSD) of receptor phosphorylation in Hek293 cells. The format is cell-based. Particulars: Hek293-IGF1R cells, 1 h pre-incubation, 10 min IGF stimulation, pIGF1R capture ELISA. In short, it runs like this: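 IC50 from 4-parameter fit of IGF1R phosphorylation, normalised to IGF-stimulated and unstimulated controls, measured by MSD capture ELISA on lysates. Hek293-IGF1R cells in starvation medium got compound 1 h (top 10 μM, 3-fold steps, 0.1% DMSO) before a 10 min pulse of 1.0 ng/μL IGF.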

T1 sequence (P08069 31-1367): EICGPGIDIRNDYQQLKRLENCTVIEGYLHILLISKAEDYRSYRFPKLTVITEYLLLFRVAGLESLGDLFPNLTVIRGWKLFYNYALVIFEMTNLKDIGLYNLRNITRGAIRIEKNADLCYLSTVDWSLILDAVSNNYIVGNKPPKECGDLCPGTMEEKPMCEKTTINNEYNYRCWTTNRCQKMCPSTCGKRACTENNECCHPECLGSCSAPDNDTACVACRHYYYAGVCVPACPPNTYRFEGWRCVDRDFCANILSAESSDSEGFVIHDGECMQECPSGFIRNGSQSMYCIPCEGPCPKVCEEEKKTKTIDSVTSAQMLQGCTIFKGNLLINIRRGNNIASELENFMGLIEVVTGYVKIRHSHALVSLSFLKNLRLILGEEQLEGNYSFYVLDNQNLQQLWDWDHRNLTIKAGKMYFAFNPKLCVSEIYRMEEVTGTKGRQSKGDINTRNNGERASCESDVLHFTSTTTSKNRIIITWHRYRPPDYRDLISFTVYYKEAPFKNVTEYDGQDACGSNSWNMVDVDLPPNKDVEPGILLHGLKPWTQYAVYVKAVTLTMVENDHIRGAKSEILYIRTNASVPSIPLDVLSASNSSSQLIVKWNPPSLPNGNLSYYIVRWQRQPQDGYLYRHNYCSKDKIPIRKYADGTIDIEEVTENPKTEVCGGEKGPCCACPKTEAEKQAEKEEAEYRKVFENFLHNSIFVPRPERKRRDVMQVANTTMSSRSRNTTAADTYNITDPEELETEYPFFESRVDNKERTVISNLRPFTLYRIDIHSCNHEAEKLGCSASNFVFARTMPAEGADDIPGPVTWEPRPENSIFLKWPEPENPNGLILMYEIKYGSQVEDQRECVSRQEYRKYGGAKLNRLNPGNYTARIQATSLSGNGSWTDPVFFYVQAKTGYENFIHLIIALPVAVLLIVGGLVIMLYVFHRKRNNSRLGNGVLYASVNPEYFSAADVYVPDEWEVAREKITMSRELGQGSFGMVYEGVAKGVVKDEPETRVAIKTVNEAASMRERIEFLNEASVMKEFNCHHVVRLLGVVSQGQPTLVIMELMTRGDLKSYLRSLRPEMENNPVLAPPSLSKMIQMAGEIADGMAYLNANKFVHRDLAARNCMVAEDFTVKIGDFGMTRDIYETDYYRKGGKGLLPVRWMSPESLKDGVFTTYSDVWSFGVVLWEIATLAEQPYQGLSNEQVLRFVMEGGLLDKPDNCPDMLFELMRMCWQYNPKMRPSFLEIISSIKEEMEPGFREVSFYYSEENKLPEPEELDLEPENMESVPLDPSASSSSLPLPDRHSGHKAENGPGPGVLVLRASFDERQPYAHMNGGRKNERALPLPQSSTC

As to `CC1(C)CCC(COc2cccc(-c3cn(C4CC(CN5CC(F)C5)C4)c4ncnc(N)c34)c2)O1` (stereo not drawn) [Example 47, 5-[trans-3-(5,5-dimethyl-tetrahydro-furan-2-ylmethoxy)-phenyl]-7-[3-(3-fluoro-azetidin-1-ylmethyl)-cyclobutyl]-7H-pyrrolo[2,3-d]pyrimidin-4-ylamine], half-maximal inhibition (IC50) was put at 0.034 µM. Under `NC(=O)[C@@H]1CCCN1C[C@]1(O)C[C@@H](n2cc(-c3cccc(OCC45CCC(CC4)O5)c3)c3c(N)ncnc32)C1` [Example 198, (S)-(Z)-1-(3-(4-Amino-5-[3-(7-oxa-bicyclo[2.2.1]hept-1-ylmethoxy)-phenyl]-pyrrolo[2,3-d]pyrimidin-7-yl}-1-hydroxy-cyclobutylmethyl)-pyrrolidine-2-carboxylic acid amide] stands 0.033 µM. `CN(C)CC1(O)CC(n2cc(-c3cccc(OCC45CCC(CC4)O5)c3)c3c(N)ncnc32)C1` (stereo not drawn) [Example 235, 3-{4-Amino-5-[3-(7-oxa-bicyclo[2.2.1]hept-1-ylmethoxy)-phenyl]-pyrrolo[2,3-d]pyrimidin-7-yl}-1-dimethylaminomethyl-cyclobutanol] registered an IC50 of 0.049 µM. Under `CC(=O)NC[C@H]1C[C@@H](n2cc(-c3cccc(OCC45CCC(CC4)O5)c3)c3c(N)ncnc32)C1` [Example 178] stands 0.047 to 0.112 µM.

In turn, `Nc1ncnc2c1c(-c1cccc(OCC3CCCCO3)c1)cn2[C@H]1C[C@H](CN2CC(F)C2)C1` (relative stereo) [Example 37, 7-[trans-3-(3-fluoro-azetidin-1-ylmethyl)-cyclobutyl]-5-[3-(tetrahydro-pyran-2-ylmethoxy)-phenyl]-7H-pyrrolo[2,3-d]pyrimidin-4-ylamine] yielded an IC50 of 0.497 µM.

Take `Nc1ncnc2c1c(-c1cccc(OCC3CCCCO3)c1)cn2C1CC(CN2CC[C@@H](F)C2)C1` (stereo partly drawn) [Example 27, 7-[3-((R)-3-fluoro-pyrrolidin-1-ylmethyl)-cyclobutyl]-5-[3-(tetrahydro-pyran-2-ylmethoxy)-phenyl]-7H-pyrrolo[2,3-d]pyrimidin-4-ylamine]: half-maximal inhibition (IC50) required 0.345 µM. On to `CC1(C)CCC(COc2cccc(-c3cn([C@H]4C[C@H](CN5CC[C@@H](O)[C@H]5C(N)=O)C4)c4ncnc(N)c34)c2)O1` (stereo partly drawn) [Example 80, (2S,3R)-1-(trans-3-(4-amino-5-[3-(5,5-dimethyl-tetrahydro-furan-2-ylmethoxy)-phenyl]-pyrrolo[2,3-d]pyrimidin-7-yl}-cyclobutylmethyl)-3-hydroxy-pyrrolidine-2-carboxylic acid amide], for which half-maximal inhibition (IC50) was put at 0.013 µM. Under `Nc1ncnc2c1c(-c1cccc(OCC34CCC(CC3)O4)c1)cn2C1CC(CN2CC3CC2C[S+]3[O-])C1` (single isomer, unassigned) [Example 228] stands 0.01 to 0.015 µM; under `CN1CCN(C(=O)N[C@H]2CC[C@@H](n3cc(-c4cccc(OCC56CCC(CC5)O6)c4)c4c(N)ncnc43)CC2)CC1` [Example 140, N-((1R,4R)-4-(5-(3-(7-oxabicyclo[2.2.1]heptan-1-ylmethoxy)phenyl)-4-amino-7H-pyrrolo[2,3-d]pyrimidin-7-yl)cyclohexyl)-4-methylpiperazine-1-carboxamide], 0.473 µM. To `Nc1ncnc2c1c(-c1cccc(OCC34CCC(CC3)O4)c1)cn2[C@H]1C[C@@H](CN2CCSCC2=O)C1` [Example 106, 4-(((1S,3S)-3-(5-(3-(7-oxabicyclo[2.2.1]heptan-1-ylmethoxy)phenyl)-4-amino-7H-pyrrolo[2,3-d]pyrimidin-7-yl}-cyclobutyl)methyl)thiomorpholin-3-one] belongs 0.061 µM; to `CC1(C)CCC(COc2cccc(-c3cn([C@H]4C[C@@H](CN5CCC[C@@H]5C(N)=O)C4)c4ncnc(N)c34)c2)O1` (stereo partly drawn) [Example 51, (R)-1-(cis-3-{4-amino-5-[3-(5,5-dimethyl-tetrahydro-furan-2-ylmethoxy)-phenyl]-pyrrolo[2,3-d]pyrimidin-7-yl}-cyclobutylmethyl)-pyrrolidine-2-carboxylic acid amide], 0.053 µM; to `CSC[C@H]1C[C@@H](n2cc(-c3cccc(OCC4CCCCO4)c3)c3c(N)ncnc32)C1` (relative stereo) [Example 85, 7-(cis-3-methylsulfanylmethyl-cyclobutyl)-5-[3-(tetrahydro-pyran-2-ylmethoxy)-phenyl]-7H-pyrrolo[2,3-d]pyrimidin-4-ylamine], 0.557 µM. To `Nc1ncnc2c1c(-c1cccc(OC[C@@H]3CCCO3)c1)cn2[C@H]1C[C@@H](CN2CCS(=O)(=O)CC2)C1` [Example 4, cis-7-(3-[(1,1-dioxidothiomorpholin-4-yl)methyl]cyclobutyl}-5-{3-[(2S)-tetrahydrofuran-2-ylmethoxy]phenyl}-7H-pyrrolo[2,3-d]pyrimidin-4-amine] belongs 0.036 µM; to `Nc1ncnc2c1c(-c1cccc(OCC34CCC(CC3)O4)c1)cn2[C@H]1C[C@@H](CN2C3CCC2CC(O)C3)C1` (stereo partly drawn) [Example 185, 8-(cis-3-{4-Amino-5-[3-(7-oxa-bicyclo[2.2.1]hept-1-ylmethoxy)-phenyl]-pyrrolo[2,3-d]pyrimidin-7-yl}-cyclobutylmethyl)-8-aza-bicyclo[3.2.1]octan-(3-exo)-ol], 0.006 µM; to `Nc1ncnc2c1c(-c1cccc(OCC34CCC(CC3)O4)c1)cn2C1CC(O)(CN2CCC(O)C2)C1` (single isomer, unassigned) [Example 207], 0.327 µM. Compound `NC(=O)[C@@H]1CCCN1C[C@H]1C[C@H](n2cc(-c3cccc(OCC4CCCCO4)c3)c3c(N)ncnc32)C1` (stereo partly drawn) [Example 38, (S)-1-(trans-3-{4-amino-5-[3-(tetrahydro-pyran-2-ylmethoxy)-phenyl]-pyrrolo[2,3-d]pyrimidin-7-yl}-cyclobutylmethyl)-pyrrolidine-2-carboxylic acid amide] yielded an IC50 of 0.276 µM. To `Nc1ncnc2c1c(-c1cccc(OCC34CCC(CC3)O4)c1)cn2C1CC(CN2CCS(=O)(=O)CC2)C1` (stereo not drawn) [Example 24, 7-[3-(1,1-dioxo-1-thiomorpholin-4-ylmethyl)-cyclobutyl]-5-[3-(7-oxa-bicyclo[2.2.1]hept-1-ylmethoxy)-phenyl]-7H-pyrrolo[2,3-d]pyrimidin-4-ylamine] belongs 0.0039 to 0.004 µM; to `CC1(C)CCC(COc2cccc(-c3cn([C@H]4C[C@@H](CN5CC(O)C5)C4)c4ncnc(N)c34)c2)O1` (relative stereo) [Example 41, 1-(cis-3-{4-amino-5-[3-(5,5-dimethyl-tetrahydro-furan-2-ylmethoxy)-phenyl]-pyrrolo[2,3-d]pyrimidin-7-yl}-cyclobutylmethyl)-azetidin-3-ol], 0.041 µM; to `NC(=O)[C@@H]1[C@@H](O)CCN1C[C@H]1C[C@@H](n2cc(-c3cccc(OCC4CCCCO4)c3)c3c(N)ncnc32)C1` (stereo partly drawn) [Example 35, (2S,3S)-1-(cis-3-{4-amino-5-[3-(tetrahydro-pyran-2-ylmethoxy)-phenyl]-pyrrolo[2,3-d]pyrimidin-7-yl}-cyclobutylmethyl)-3-hydroxy-pyrrolidine-2-carboxylic acid amide], 0.041 to 0.103 µM.

Regarding `Nc1ncnc2c1c(-c1cccc(OCC34CCC(CC3)O4)c1)cn2C1CC(O)(CN2CCC(O)C2)C1` (single isomer, unassigned) [Example 206], 0.288 µM corresponded to half-maximal inhibition (IC50). Under `Nc1ncnc2c1c(-c1cccc(OCC3CCCO3)c1)cn2[C@H]1C[C@@H](CN2CCC(F)(F)CC2)C1` (relative stereo) [Example 83, 7-[cis-3-(4,4-difluoro-piperidin-1-ylmethyl)-cyclobutyl]-5-[3-(tetrahydro-furan-2-ylmethoxy)-phenyl]-7H-pyrrolo[2,3-d]pyrimidin-4-ylamine] stands 0.372 µM; under `CC(C)C(=O)N[C@H]1CC[C@@H](n2cc(-c3cccc(OCC45CCC(CC4)O5)c3)c3c(N)ncnc32)CC1` [Example 147, N-((1S,4S)-4-(5-(3-(7-oxabicyclo[2.2.1]heptan-1-ylmethoxy)phenyl)-4-amino-7H-pyrrolo[2,3-d]pyrimidin-7-yl)cyclohexyl)isobutyramide], 0.231 µM.

The compound `Nc1ncnc2c1c(-c1cccc(OCC34CCC(CC3)O4)c1)cn2[C@H]1CC[C@@H](CN2CC[S+]([O-])CC2)CC1` [Example 115, 5-[3-(7-Oxa-bicyclo[2.2.1]hept-1-ylmethoxy)-phenyl]-7-cis-[4-(1-oxo-1λ4-thiomorpholin-4-ylmethyl)-cyclohexyl]-7H-pyrrolo[2,3-d]pyrimidin-4-ylamine] had an IC50 of 0.287 µM. To “7-[cis-3-(4-methyltetrazoyl-1-ylmethyl)-cyclobutyl]-5-3-(7-oxa-bicyclo[2.2.1]hept-1-ylmethoxy)-phenyl]-7H-pyrrolo[2,3-d]pyrimidin-4-ylamine [Example 179]” belongs 0.345 µM; to `Nc1ncnc2c1c(-c1cccc(OCC34CCC(CC3)O4)c1)cn2[C@H]1C[C@@H](N2CC3CC2CN3CCO)C1` (relative stereo) [Example 174, 2-[5-(cis-3-{4-amino-5-[3-(7-oxa-bicyclo[2.2.1]hept-1-ylmethoxy)-phenyl]-pyrrolo[2,3-d]pyrimidin-7-yl}cyclobutyl)-2,5-diaza-bicyclo[2.2.1]hept-2-yl]-ethanol], 0.303 µM; to `Nc1ncnc2c1c(-c1cccc(OCC34CCC(CC3)O4)c1)cn2[C@@H]1CCN(C2CCS(=O)(=O)CC2)C1` [Example 215, 7-[(R)-1-(1,1-dioxo-hexahydro-thiopyran-4-yl)-pyrrolidin-3-yl]-5-[3-(7-oxa-bicyclo[2.2.1]hept-1-ylmethoxy)-phenyl]-7H-pyrrolo[2,3-d]pyrimidin-4-ylamine], 0.332 µM. The compound `Nc1ncnc2c1c(-c1cccc(OCC34CCC(CC3)O4)c1)cn2C1CC(O)(CN2CCC(O)C2)C1` (single isomer, unassigned) [Example 204] yielded an IC50 of 0.053 µM.
